According to patent publication US20240058332A1, “CRAC CHANNEL INHIBITOR COMPOSITIONS” (CalciMedica, Inc., priority 2017, published 2024):
In brackets after ≈: the same amount, converted by molar mass. Each block holds one molecule with its values, some of them ahead of it.

Assays:
Type in all cases: physicochemical
[1] = Solubility estimation of freebase Form A in 20 solvents at RT
Experimental: The solubility of N-(5-(6-chloro-2,2-difluorobenzo[d][1,3]dioxol-5-yl)pyrazin-2-yl)-2-fluoro-6-methylbenzamide freebase Form A was determined in 20 solvents at RT. These experiments were conducted by adding approximately 2 mg of sample into a 3-mL glass vial. Solvents in Table 14 were then added in 50 μL increments into the vials until the solids were dissolved or a total volume of 2 mL was reached. The solubility estimation was used to guide the solvent selection in polymorph screening. N-(5-(6-chloro-2,2-difluorobenzo[d][1,3]dioxol-5-yl)pyrazin-2-yl)-2-fluoro-6-methylbenzamide freebase Form A is soluble in MeOH, Acetic acid, Acetonitrile, Acetone, MIBK, EtOAc, IPAc, MTBE, THF, 2-MeTHF, 1,4-Dioxane, NMP, DMSO, DCM, Toluene and DMAc (>18.0 mg/mL), while it is insoluble in Heptane and H2O (<1.3 mg/mL).

[2] = Solubility of Compound A in F57, summary of all 7 methods; settings: F57 emulsion, 2 °C, thermodynamic from solid, 2-8° C., all methods; read-out: solubility in F57
Text: The term “solubility” used herein is defined as Compound A concentration where Compound A has reached a dissolution-precipitation equilibrium in F57 at a selected temperature. […] On the other hand, if Compound A concentration is higher than the solubility, Compound A is expected to precipitate over time.
To investigate the causes of precipitation and determine the Compound A solubility in F57 vehicle, the following seven (7) methods were applied to accurately determine solubility of Compound A in F57: • Method 1: Formulate Compound A in F57 at varied concentrations using GMP grade of Compound A and excipients with the regular process • Method 2: Formulate Compound A in F57 by introducing Compound A into a pre-formed F57 vehicle • Method 3: Observe Compound A in the previously made batches which already had extended incubation • Method 4: Conduct “top-down” and a “bottom-up” solubility studies in F57 vehicle • Method 5: Agitate Compound A GMP batch of F57 to promote the dissolution-precipitation equilibrium • Method 6: Add extra Form B seeds to Compound A GMP batch of F57 to promote Compound A crystal growth and precipitation • Method 7: Add Form B seeds to the samples made in method 1 to promote Compound A crystal growth and precipitation
(§1) For solubility determination, a F57 sample (usually about 0.5 mL) was filtered through a 0.22 μm centrifuge filter (Costar Spin-X®+, P/N8169), the filtrate (free of any solid particle) was collected, diluted with isopropanol, and tested for Compound A concentration using the following HPLC method. Dissolution-precipitation equilibrium is reached once the measured filtrate concentration is constant, and that concentration can be regarded as the solubility.
Table 40 summarizes the general conditions used in the seven methods to promote the dissolution-precipitation equilibrium. Detailed procedures are described in each method section.
The general observation and findings by all 7 methods are summarized in the table 50, according to the detailed observation and discussion pertaining to each method.

[3] = Solubility of Compound A in F57, Method 4: bottom-up method; settings: for concentration in F57 vehicle: Method 4 bottom-up
[4] = Solubility of Compound A in F57, Method 4: top-down method; settings: for concentration in F57 vehicle: Method 4 top-down, 2-8° C.; for strength dissolved into F57 vehicle: top-down approach; for concentration on storage: top-down, after 4 weeks' storage at 2-8° C.
Experimental: as §1
The top-down method used high-energy homogenization to dissolve a set amount of Compound A (Form A) in the F57 vehicle to achieve supersaturation, allowing precipitation to take place over time to reach a dissolution-precipitation equilibrium in F57. The solubility of Compound A in the F57 vehicle was then determined.
(§2) The bottom-up method used a gentle mixing to slowly dissolve Compound A (Form A) in the F57 vehicle to reach the dissolution-precipitation equilibrium in F57. The solubility of Compound A in the F57 vehicle was then determined. • Top-down method: Add form A and B API, each into a separate tube containing the F57 vehicle, then apply extensive energy to each tube by homogenizer (BB, 600 sec) to obtain a clear solution, and store each tube at 2-8° C. • Bottom-up method: Add form A and B API, each into a separate tube containing the F57 vehicle, then gently shake each tube on a platform shaker at 2-8° C. • Pull sample aliquots at 1 day, 2 days, 1 week and 4 weeks to test for appearance and concentration.

[5] = DVS isotherm (hygroscopicity) of Form A
Text: The crystal size of Form A is in the range of ˜few μm to about 50 μm.

[6] = Solubility of Compound A in F57, Method 4: bottom-up method; settings: 2-8° C.; for concentration in F57 vehicle: Method 4 bottom-up
Experimental: as §1, §2

solubility ([1]; organic solvent or mixture, thermodynamic from solid, 1,4-Dioxane, read-out: Solubility): > 24 mg/mL
solubility ([1]; organic solvent or mixture, thermodynamic from solid, 2-MeTHF, read-out: Solubility): > 26 mg/mL
solubility ([1]; organic solvent or mixture, thermodynamic from solid, Acetic acid, read-out: Solubility): > 22 mg/mL
solubility ([1]; organic solvent or mixture, thermodynamic from solid, Acetone, read-out: Solubility): > 22 mg/mL
solubility ([1]; organic solvent or mixture, thermodynamic from solid, Acetonitrile, read-out: Solubility): > 22 mg/mL
solubility ([1]; organic solvent or mixture, thermodynamic from solid, DCM, read-out: Solubility): > 22 mg/mL
solubility ([1]; organic solvent or mixture, thermodynamic from solid, DMAc, read-out: Solubility): > 22 mg/mL
solubility ([1]; organic solvent or mixture, thermodynamic from solid, DMSO, read-out: Solubility): > 20 mg/mL
solubility ([1]; organic solvent or mixture, thermodynamic from solid, EtOAc, read-out: Solubility): > 22 mg/mL
solubility ([1]; organic solvent or mixture, thermodynamic from solid, Heptane, read-out: Solubility): < 1.3 mg/mL
solubility ([1]; organic solvent or mixture, thermodynamic from solid, IPAc, read-out: Solubility): > 24 mg/mL
solubility ([1]; organic solvent or mixture, thermodynamic from solid, MIBK, read-out: Solubility): > 22 mg/mL
solubility ([1]; organic solvent or mixture, thermodynamic from solid, MTBE, read-out: Solubility): > 18 mg/mL
solubility ([1]; organic solvent or mixture, thermodynamic from solid, MeOH, read-out: Solubility): > 18 mg/mL
solubility ([1]; organic solvent or mixture, thermodynamic from solid, NMP, read-out: Solubility): > 26 mg/mL
solubility ([1]; organic solvent or mixture, thermodynamic from solid, THF, read-out: Solubility): > 20 mg/mL
solubility ([1]; organic solvent or mixture, thermodynamic from solid, Toluene, read-out: Solubility): > 22 mg/mL
solubility ([1]; organic solvent or mixture, thermodynamic from solid, in Heptane and H2O, read-out: solubility (insoluble)): < 1.3 mg/mL
solubility ([1]; organic solvent or mixture, thermodynamic from solid, in MeOH, Acetic acid, Acetonitrile, Acetone, MIBK, EtOAc, IPAc, MTBE, THF, 2-MeTHF, 1,4-Dioxane, NMP, DMSO, DCM, Toluene and DMAc, read-out: solubility (soluble)): > 18 mg/mL
solubility ([1]; water, thermodynamic from solid, H2O, read-out: Solubility): < 1 mg/mL
solubility [2]: 1.8 to 1.9 mg/mL (≈ 4.27 to 4.5 mM)
solubility at 7 weeks ([3]; F57 emulsion vehicle, thermodynamic from solid, bottom-up, F57 vehicle, 2-8° C., in 7 weeks): 1.8 mg/mL (≈ 4.27 mM)
concentration in F57 vehicle ([3]; 2-8° C., 7 wk): 1850 µg/mL
concentration in F57 vehicle ([3]; 25° C., 1 wk): 2190 µg/mL
concentration in F57 vehicle ([3]; 25° C., 4 wk): 2170 µg/mL
concentration in F57 vehicle ([3]; 25° C., 1 day): 2180 µg/mL
concentration in F57 vehicle ([3]; 25° C., 2 day): 2240 µg/mL
concentration in F57 vehicle ([4]; 1 wk): 2680 µg/mL
concentration in F57 vehicle ([4]; 4 wk): 2640 µg/mL
concentration in F57 vehicle ([4]; 1 day): 2690 µg/mL
concentration in F57 vehicle ([4]; 2 day): 2650 µg/mL
strength dissolved into F57 vehicle [4]: 2.69 mg/mL
concentration on storage [4]: remained the same
hygroscopicity ([5]; DVS isotherm plot): not hygroscopic
water uptake level ([5]; DVS isotherm, at 80% RH): < 0.03%
concentration in F57 vehicle ([6]; 1 wk): 1700 µg/mL
concentration in F57 vehicle ([6]; 4 wk): 1710 µg/mL
concentration in F57 vehicle ([6]; 1 day): 1200 µg/mL
concentration in F57 vehicle ([6]; 2 day): 1530 µg/mL
dissolution rate ([6]; bottom-up, emulsion vehicle): faster dissolution rate
SMILES: Cc1cccc(F)c1C(=O)Nc1cnc(-c2cc3c(cc2Cl)OC(F)(F)O3)cn1 [Form A, N-(5-(6-chloro-2,2-difluorobenzo[d][1,3]dioxol-5-yl)pyrazin-2-yl)-2-fluoro-6-methylbenzamide]

concentration in F57 vehicle ([3]; 2-8° C., 7 wk): 1800 µg/mL
concentration in F57 vehicle ([3]; 25° C., 1 wk): 2150 µg/mL
concentration in F57 vehicle ([3]; 25° C., 4 wk): 2040 µg/mL
concentration in F57 vehicle ([3]; 25° C., 1 day): 1300 µg/mL
concentration in F57 vehicle ([3]; 25° C., 2 day): 1730 µg/mL
solubility ([3]; bottom-up, F57 vehicle, 2-8° C., in 7 weeks): 1.8 mg/mL (≈ 4.27 mM)
concentration in F57 vehicle ([4]; 1 wk): 2970 µg/mL
concentration in F57 vehicle ([4]; 4 wk): 2970 µg/mL
concentration in F57 vehicle ([4]; 1 day): 3000 µg/mL
concentration in F57 vehicle ([4]; 2 day): 2940 µg/mL
strength dissolved into F57 vehicle [4]: 3.00 mg/mL
concentration on storage [4]: remained the same
concentration in F57 vehicle ([6]; 1 wk): 1630 µg/mL
concentration in F57 vehicle ([6]; 4 wk): 1660 µg/mL
concentration in F57 vehicle ([6]; 1 day): 750 µg/mL
concentration in F57 vehicle ([6]; 2 day): 1140 µg/mL
SMILES: Cc1cccc(F)c1C(=O)Nc1cnc(-c2cc3c(cc2Cl)OC(F)(F)O3)cn1 [Form B, N-(5-(6-chloro-2,2-difluorobenzo[d][1,3]dioxol-5-yl)pyrazin-2-yl)-2-fluoro-6-methylbenzamide]
